We go through one substance from patent US12708106B2 (priority 2019, dated 2026).

The experiment has as its system Eimeria and Clostridium perfringens. It counts as in vivo, male broilers.
Where [1] appears, read: T4: 10 ppm (Enradin 8%), Eimeria + Clostridium challenge, mean ± SD.

As for Enramycin, under setting [1], the “BWG—Body Weight Gain 1-7 D” value worked out at 90.95 ± 5.11 b g and the “FCR (Feed Conversion Ratio) 1-7 D” value is 1.568 ± 0.123. Further, where the note is “T4: 10 ppm, challenged”, the “BWG—Body Weight Gain 1-14 D” value is on record as 413.37 ± 12.89 b g, the “BWG—Body Weight Gain 1-21 D” value was determined as 926.22 ± 23.58 b g, the “BWG—Body Weight Gain 1-28 D” value is recorded as 1595.5 ± 42.62 b g and the “FCR (Feed Conversion Ratio) 1-14 D” value stood at 1.070 ± 0.049. Under “T4: 10 ppm, challenged”, the “FCR (Feed Conversion Ratio) 1-21 D” value worked out at 1.255 ± 0.036 ab and the “FCR (Feed Conversion Ratio) 1-28 D” value was 1.228 ± 0.024 ab.
